Assay results from patent US7785585B2, “Compositions comprising sclareol or derivatives thereof and uses thereof” (Avoca, Inc., priority 2004, dated 2010).

Tested on: Human subcutaneous preadipocytes
Test: Lipolysis assay (glycerol release) in differentiated human subcutaneous preadipocytes
Type: cell-based
Method: Human subcutaneous preadipocytes were obtained from human patients undergoing liposuction and pooled. The characteristics of the patients are shown below: • Sex: F • B.M.I.: 27.25 (avg.) • AGE: 43 (avg.) The human subcutaneous preadiposytes were designated lot #SL0028.
Preadipocytes were plated in 96-well plates and allowed to differentiate in the absence of compounds (e.g., sclareolide or sclareolide+GPM) for about two weeks. On the day of the assay, the culture medium was removed and the cells were washed gently with Krebs-Ringer buffer (KRB) in the following manner. 120 μl of medium in the wells was removed and 200 μl/well of KRB was added. The KRB in the wells was removed and another aliquot of 200 μl/well of the KRB was added. The wells were washed one row at a time to ensure that the cells remained moist and stayed attached to the plate.
Next, all of the KRB was removed and the cells were treated with 150 μl/well of the controls or 150 μl/well of the test compounds (resuspended in KRB with 1% BSA), either 1) sclareolide at […] or 2) sclareolide plus GPM at […], and incubated at 37° C. for five hours. The assay was performed in triplicate.
At the end of the treatment, 100 μl/well of the conditioned media was removed from the assay plate and added to the corresponding well of a new plate. […]
The optical density of each well of the new plate was measured at 540 nm.

CC1(C)CCC[C@]2(C)[C@H]3CC(=O)O[C@]3(C)CC[C@@H]12 [Sclareolide]
% Increase in Lipolysis over Control (Sclareolide concentration 10 μg/ml, 37° C. for five hours, glycerol assay, OD 540 nm, triplicate): 55%
Lipolysis over the control (in words) (sclareolide 10 μg/ml, sclareolide+GPM 7.5 μg/ml, five hours): significantly increased lipolysis over the control
